Numbers after ± are expanded uncertainties.
Conditions: for kinematic viscosity / surface tension liquid-gas: surface light scattering; for speed of sound / thermal diffusivity: dynamic light scattering

FC(C(F)(F)F)C(F)(F)F [1,1,1,2,3,3,3-heptafluoropropane]
Conditions	Critical temperature [K]	kinematic viscosity [m2/s]	speed of sound [m/s]	surface tension liquid-gas [mN/m]	thermal diffusivity [m2/s]
253.15 K, Liquid	–	2.88e-07 ± 5.8e-09	–	12.26 ± 0.25	–
263.15 K, Liquid	–	2.54e-07 ± 5.1e-09	–	10.96 ± 0.22	–
273.15 K, Liquid	–	2.28e-07 ± 4.6e-09	–	9.76 ± 0.2	–
283.15 K, Liquid	–	2.05e-07 ± 4.1e-09	–	8.62 ± 0.17	–
293.15 K, Liquid	–	1.83e-07 ± 3.7e-09	–	7.46 ± 0.15	–
293.22 K, Liquid	–	–	437.4 ± 4.4	–	3.66e-08 ± 7e-10
303.12 K, Liquid	–	–	397.8 ± 4	–	3.5e-08 ± 7e-10
303.15 K, Liquid	–	1.66e-07 ± 6.6e-09	–	6.31 ± 0.13	–
313.15 K, Liquid	–	1.52e-07 ± 6.1e-09	–	5.25 ± 0.11	–
313.2 K, Liquid	–	–	356.8 ± 3.6	–	3.26e-08 ± 7e-10
323.15 K, Liquid	–	1.36e-07 ± 5.4e-09	–	4.23 ± 0.09	–
323.18 K, Liquid	–	–	315.5 ± 3.2	–	3.14e-08 ± 6e-10
332.72 K, Liquid	–	–	275.1 ± 2.8	–	2.95e-08 ± 6e-10
333.15 K, Liquid	–	1.22e-07 ± 4.9e-09	–	3.23 ± 0.07	–
342.68 K, Liquid	–	–	231.6 ± 2.4	–	2.76e-08 ± 6e-10
343.15 K, Liquid	–	1.08e-07 ± 4.3e-09	–	2.3 ± 0.05	–
345.66 K, Gas	–	–	92.5 ± 0.9	–	1.01e-07 ± 2e-09
348.02 K, Liquid	–	–	208.4 ± 2.1	–	2.66e-08 ± 5e-10
348.15 K, Gas	–	–	90.6 ± 0.9	–	9.3e-08 ± 1.9e-09
350.65 K, Gas	–	–	89.4 ± 0.9	–	8.46e-08 ± 1.7e-09
353.02 K, Liquid	–	–	185.5 ± 1.9	–	2.51e-08 ± 5e-10
353.15 K, Gas	–	–	87.1 ± 0.9	–	7.64e-08 ± 1.5e-09
353.15 K, Liquid	–	9.43e-08 ± 3.8e-09	–	1.42 ± 0.03	–
355.64 K, Gas	–	–	85.1 ± 0.9	–	6.9e-08 ± 1.4e-09
358.09 K, Liquid	–	–	160.8 ± 1.7	–	2.36e-08 ± 5e-10
358.14 K, Gas	–	–	82.9 ± 0.8	–	6.06e-08 ± 1.2e-09
358.15 K, Liquid	–	8.74e-08 ± 3.5e-09	–	1.02 ± 0.03	–
360.64 K, Gas	–	–	80.4 ± 0.8	–	5.25e-08 ± 1.1e-09
363.09 K, Liquid	–	–	134.7 ± 1.5	–	2.11e-08 ± 4e-10
363.14 K, Gas	–	–	77.9 ± 0.8	–	4.41e-08 ± 9e-10
363.15 K, Liquid	–	8.08e-08 ± 3.2e-09	–	0.644 ± 0.019	–
365.63 K, Gas	–	–	75.2 ± 0.8	–	3.6e-08 ± 7e-10
365.9 K, Liquid	–	–	118.5 ± 1.3	–	1.92e-08 ± 4e-10
367.67 K, Gas	–	–	72.8 ± 0.7	–	2.91e-08 ± 6e-10
368.08 K, Liquid	–	–	106.1 ± 1.2	–	1.72e-08 ± 4e-10
368.15 K, Liquid	–	7.34e-08 ± 3e-09	–	0.314 ± 0.014	–
369.47 K, Gas	–	–	70.5 ± 0.7	–	2.26e-08 ± 5e-10
370.15 K, Liquid	–	7.03e-08 ± 2.8e-09	–	0.2 ± 0.012	–
370.2 K, Liquid	–	–	92.6 ± 1.1	–	1.42e-08 ± 3e-10
370.76 K, Gas	–	–	68.7 ± 0.7	–	1.78e-08 ± 4e-10
371.15 K, Liquid	–	6.79e-08 ± 2.7e-09	–	0.145 ± 0.011	–
371.41 K, Liquid	–	–	83.8 ± 1.1	–	1.21e-08 ± 3e-10
371.96 K, Gas	–	–	67 ± 0.7	–	1.32e-08 ± 3e-10
372.15 K, Liquid	–	6.74e-08 ± 2.7e-09	–	–	–
372.19 K, Liquid	–	–	78.2 ± 1.1	–	9.91e-09 ± 3.3e-10
372.96 K, Gas	–	–	65.3 ± 0.7	–	9.21e-09 ± 1.8e-10
372.99 K, Liquid	–	–	72.8 ± 1.1	–	7.88e-09 ± 3.3e-10
373.5 K, Liquid	–	–	68.3 ± 1	–	6.11e-09 ± 3.7e-10
373.95 K, Gas	–	–	63.6 ± 0.7	–	4.9e-09 ± 1e-10
373.99 K, Liquid	–	–	65.3 ± 0.9	–	4.34e-09 ± 4e-10
374.45 K, Gas	–	–	–	–	2.65e-09 ± 5e-11
374.49 K, Liquid	–	–	–	–	2.24e-09 ± 4.4e-10
374.65 K, Gas	–	–	–	–	1.73e-09 ± 4e-11
374.67 K, Liquid	–	–	–	–	1.36e-09 ± 4.9e-10
Liquid, Visual observation in an unstirred cell	374.9 ± 0.12	–	–	–	–
